Experimental data from ChEMBL document CHEMBL1201862, “PubChem BioAssay data set” (2004).
The source made the active and inactive calls.

What was measured:
[1] = A Cell Based Secondary Assay To Explore Cytotoxicity of Compounds that Sensitize Mycobacterium Tuberculosis to Beta-Lactam Antibiotics.; format: functional
[2] = target: Lysosomal acid glucosylceramidase (Homo sapiens, UniProt P04062); experiment: Dose response cell-based high throughput screening assay to identify enhancers of beta-glucosidase activity. [Related pubchem assays: 784 ]; format: functional
Streptococcus = experiment: Luminescence Microorganism-Based Dose Response Follow up to Identify Compounds Cytotoxic to Streptococcus. [Related pubchem assays: 1677 (Project Summary), 1915, 1914, 1902 (Retest at Dose), 1900 (Counter Screen), 1662 (Primary HTS)]; format: functional, organism-based
Leucine aminopeptidase = target: T1, Leucine aminopeptidase (Plasmodium falciparum 3D7, UniProt Q8IL11); experiment: P. falciparum M17LAP inhibitors, primary screen, biochemical, fluorogenic H-Leu-NHMec substrate, 1536-well (AID 1619); format: functional
T1 sequence (Q8IL11 whole entry): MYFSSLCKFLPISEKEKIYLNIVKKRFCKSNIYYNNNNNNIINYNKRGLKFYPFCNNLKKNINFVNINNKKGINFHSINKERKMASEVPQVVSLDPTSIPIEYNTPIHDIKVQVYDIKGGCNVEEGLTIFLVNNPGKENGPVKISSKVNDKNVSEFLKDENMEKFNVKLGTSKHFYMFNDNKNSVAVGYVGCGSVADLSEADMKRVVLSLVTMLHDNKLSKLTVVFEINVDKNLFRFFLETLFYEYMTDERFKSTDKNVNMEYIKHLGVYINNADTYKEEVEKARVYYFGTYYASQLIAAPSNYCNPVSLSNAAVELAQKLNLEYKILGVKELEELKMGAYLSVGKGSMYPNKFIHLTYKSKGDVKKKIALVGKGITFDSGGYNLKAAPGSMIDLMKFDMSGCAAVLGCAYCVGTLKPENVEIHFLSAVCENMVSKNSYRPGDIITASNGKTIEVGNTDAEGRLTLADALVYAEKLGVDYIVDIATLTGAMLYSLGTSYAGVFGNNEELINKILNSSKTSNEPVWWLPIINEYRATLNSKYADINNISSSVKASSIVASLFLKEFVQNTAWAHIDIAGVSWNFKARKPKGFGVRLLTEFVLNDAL

[3] = Counterscreen for IDE inhibitors: Luminescence-based cell-based high throughput dose response assay to identify compounds that are cytotoxic to HEK cells. [Related pubchem assays: 434962 (Primary screen (IDE inhibitors in singlicate)), 449730 (Counterscreen (Cytotoxicity in triplicate)), 435028 (Confirmation (IDE inhibitors in triplicate)) …; format: functional; conditions: HEK293
Insulin-degrading enzyme = target: T2, Insulin-degrading enzyme (Homo sapiens, UniProt P14735); experiment: Dose Response: Fluorescence polarization-based cell-based high throughput dose response assay for inhibitors of insulin-degrading enzyme (IDE). [Related pubchem assays: 434962 (Primary screen (IDE inhibitors in singlicate)), 449730 (Counterscreen (Cytotoxicity in triplicate)), 435028 (Confirmation (IDE inhibitors in triplicate)), 434984 (Summary …; format: functional
T2 sequence (P14735 whole entry): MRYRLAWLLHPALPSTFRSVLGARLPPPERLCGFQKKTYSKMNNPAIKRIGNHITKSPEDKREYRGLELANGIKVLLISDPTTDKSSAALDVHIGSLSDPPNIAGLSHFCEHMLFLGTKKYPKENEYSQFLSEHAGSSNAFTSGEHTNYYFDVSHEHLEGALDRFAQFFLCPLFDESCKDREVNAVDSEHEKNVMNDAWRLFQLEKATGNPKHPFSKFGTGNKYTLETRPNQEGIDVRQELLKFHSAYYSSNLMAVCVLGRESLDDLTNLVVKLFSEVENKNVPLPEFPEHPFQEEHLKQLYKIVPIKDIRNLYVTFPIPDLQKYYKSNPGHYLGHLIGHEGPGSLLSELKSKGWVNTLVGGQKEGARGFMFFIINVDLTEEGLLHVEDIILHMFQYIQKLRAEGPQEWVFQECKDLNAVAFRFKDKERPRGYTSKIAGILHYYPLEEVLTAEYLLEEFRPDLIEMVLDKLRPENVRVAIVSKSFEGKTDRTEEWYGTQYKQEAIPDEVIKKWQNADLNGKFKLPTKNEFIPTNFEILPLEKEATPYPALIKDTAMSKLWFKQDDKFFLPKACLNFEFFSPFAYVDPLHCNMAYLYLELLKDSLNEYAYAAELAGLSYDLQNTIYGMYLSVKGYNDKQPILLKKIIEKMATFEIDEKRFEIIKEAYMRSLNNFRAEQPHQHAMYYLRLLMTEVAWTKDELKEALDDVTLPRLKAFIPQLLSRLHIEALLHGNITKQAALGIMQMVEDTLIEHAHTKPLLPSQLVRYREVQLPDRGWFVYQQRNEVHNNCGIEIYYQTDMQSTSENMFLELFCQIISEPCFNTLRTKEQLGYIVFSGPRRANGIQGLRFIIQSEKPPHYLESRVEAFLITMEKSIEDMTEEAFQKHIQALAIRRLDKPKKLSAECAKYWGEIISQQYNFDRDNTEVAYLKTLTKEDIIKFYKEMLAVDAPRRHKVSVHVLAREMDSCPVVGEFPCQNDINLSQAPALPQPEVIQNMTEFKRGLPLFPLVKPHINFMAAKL

[4] = enhancers of respiration in Yfh1-depleted yeast, dose response, Friedreich's ataxia, plus single-dose screen (AID 1465); format: functional;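 also: yeast depleted of Yfh1p frataxin homolog grown on glycerol needing respiration; WST-1 tetrazolium dye reduction as measure of cellular dehydrogenase metabolic activity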
Cytochrome P450 2D6 = Cytochrome P450 2D6 (Homo sapiens, UniProt P10635); experiment: qHTS Assay for Inhibitors and Substrates of Cytochrome P450 2D6. [Related pubchem assays: 410 ]; format: ADME; conditions: read-out: Potency
[5] = target: T3, Eukaryotic translation initiation factor 2-alpha kinase 3 (Homo sapiens, UniProt Q9NZJ5); experiment: Dose response cell-based high-throughput screening assay to measure PERK inhibition. [Related pubchem assays: 1416 ]; format: functional
[6] = target: T3, Eukaryotic translation initiation factor 2-alpha kinase 3; experiment: Counterscreen assay for PERK inhibitors: Dose response cell-based high throughput screening assay to measure inhibition of PERK at 6 hours. [Related pubchem assays: 1522, 1416 ]; format: functional
[7] = target: T4, Neuropeptides B/W receptor type 1 (Homo sapiens, UniProt P48145); experiment: Fluorescence-based dose response cell-based high throughput screening assay to identify antagonists of the G-protein coupled receptor 7 (GPR7). [Related pubchem assays: 1952 (Screening assay (GPR7 antagonists).), 1880 (Summary AID.)]; format: functional
T4 sequence (P48145 whole entry): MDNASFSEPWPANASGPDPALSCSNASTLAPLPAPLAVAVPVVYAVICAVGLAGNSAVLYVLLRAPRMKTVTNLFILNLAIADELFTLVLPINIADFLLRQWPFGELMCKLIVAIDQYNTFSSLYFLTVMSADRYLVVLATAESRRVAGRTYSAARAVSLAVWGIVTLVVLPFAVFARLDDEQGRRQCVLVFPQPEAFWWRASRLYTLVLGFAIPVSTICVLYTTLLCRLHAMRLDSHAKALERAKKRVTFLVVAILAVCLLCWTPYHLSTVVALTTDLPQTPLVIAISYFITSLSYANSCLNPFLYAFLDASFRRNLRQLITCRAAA

[8] = target: Melanin-concentrating hormone receptor 1 (Homo sapiens, UniProt Q99705); experiment: Fluorescence-based counterscreen for antagonists of the G-protein coupled receptor 7 (GPR7): cell-based high throughput dose response assay to identify antagonists of the melanin-concentrating hormone receptor 1 (MCHR1).; format: functional
[9] = inhibitors of intracellular T. cruzi replication, confirmation, NIH3T3 host cells, beta-gal luminescence (AID 2044); format: functional, cell-based;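 also: intracellular parasites grown in NIH/3T3 mouse fibroblasts as host cells; luminescent beta-galactosidase reporter signal from transgenic T. cruzi replicating inside host cells; inhibitors lower the luminescence signal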
[10] = cytotoxicity toward NIH3T3 fibroblasts, dose response, counter-screen, cell-based, ATP luminescence, mouse fibroblasts (AID 2010); format: functional;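 also: cells exposed to compound for about 90 hours before reading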
HEK293 [11] = experiment: NOD1 signaling inhibitors, primary screen, cell-based, luminescence, uHTS (AID 1578); format: functional; conditions: Homo sapiens
HEK293 [12] = experiment: cells; format: functional, cell-based; conditions: Homo sapiens
[13] = target: Transitional endoplasmic reticulum ATPase (Homo sapiens, UniProt P55072, C522A); experiment: C522A mutant p97 ATPase inhibitors, dose response, counter-screen for p97 inhibitor project, biochemical, luminescence (AID 1544)
HEK293 [14] = experiment: cells; format: functional, cell-based; conditions: Homo sapiens; remark: listed apart in the source
[15] = HIV-1 Env-mediated cell fusion inhibitors, dose response, CCR5-tropic Env (AID 2279); format: functional
HEK293 [16] = experiment: NOD2 signaling inhibitors in MDP-stimulated cells, cell-based, uHTS, luminescence (AID 2001); format: functional; conditions: Homo sapiens
[17] = target: Transitional endoplasmic reticulum ATPase (Homo sapiens, UniProt P55072); experiment: p97 ATPase inhibitors, dose response, biochemical (AID 1534)
[18] = target: Induced myeloid leukemia cell differentiation protein Mcl-1 (Homo sapiens, UniProt Q07820); format: functional
Nonstructural protein 1 = Nonstructural protein 1 (Influenza A virus, UniProt Q194T2); format: functional, Influenza A virus (A/California/07/2009(H1N1))
Vero = Vero cell cytotoxicity, cytotoxicity control for flavivirus capping enzyme inhibitors (AID 588742); format: functional; conditions: Chlorocebus sabaeus
Genome polyprotein = Genome polyprotein (dengue virus type 2, UniProt P29990); experiment: Dengue-2 NS5 methyltransferase inhibitors, primary screen, biochemical, confirmation dose response (AID 588689); format: functional
[19] = target: T5, Histone-lysine N-methyltransferase NSD2 (Homo sapiens, UniProt O96028); format: biochemical
T5 sequence (O96028 whole entry): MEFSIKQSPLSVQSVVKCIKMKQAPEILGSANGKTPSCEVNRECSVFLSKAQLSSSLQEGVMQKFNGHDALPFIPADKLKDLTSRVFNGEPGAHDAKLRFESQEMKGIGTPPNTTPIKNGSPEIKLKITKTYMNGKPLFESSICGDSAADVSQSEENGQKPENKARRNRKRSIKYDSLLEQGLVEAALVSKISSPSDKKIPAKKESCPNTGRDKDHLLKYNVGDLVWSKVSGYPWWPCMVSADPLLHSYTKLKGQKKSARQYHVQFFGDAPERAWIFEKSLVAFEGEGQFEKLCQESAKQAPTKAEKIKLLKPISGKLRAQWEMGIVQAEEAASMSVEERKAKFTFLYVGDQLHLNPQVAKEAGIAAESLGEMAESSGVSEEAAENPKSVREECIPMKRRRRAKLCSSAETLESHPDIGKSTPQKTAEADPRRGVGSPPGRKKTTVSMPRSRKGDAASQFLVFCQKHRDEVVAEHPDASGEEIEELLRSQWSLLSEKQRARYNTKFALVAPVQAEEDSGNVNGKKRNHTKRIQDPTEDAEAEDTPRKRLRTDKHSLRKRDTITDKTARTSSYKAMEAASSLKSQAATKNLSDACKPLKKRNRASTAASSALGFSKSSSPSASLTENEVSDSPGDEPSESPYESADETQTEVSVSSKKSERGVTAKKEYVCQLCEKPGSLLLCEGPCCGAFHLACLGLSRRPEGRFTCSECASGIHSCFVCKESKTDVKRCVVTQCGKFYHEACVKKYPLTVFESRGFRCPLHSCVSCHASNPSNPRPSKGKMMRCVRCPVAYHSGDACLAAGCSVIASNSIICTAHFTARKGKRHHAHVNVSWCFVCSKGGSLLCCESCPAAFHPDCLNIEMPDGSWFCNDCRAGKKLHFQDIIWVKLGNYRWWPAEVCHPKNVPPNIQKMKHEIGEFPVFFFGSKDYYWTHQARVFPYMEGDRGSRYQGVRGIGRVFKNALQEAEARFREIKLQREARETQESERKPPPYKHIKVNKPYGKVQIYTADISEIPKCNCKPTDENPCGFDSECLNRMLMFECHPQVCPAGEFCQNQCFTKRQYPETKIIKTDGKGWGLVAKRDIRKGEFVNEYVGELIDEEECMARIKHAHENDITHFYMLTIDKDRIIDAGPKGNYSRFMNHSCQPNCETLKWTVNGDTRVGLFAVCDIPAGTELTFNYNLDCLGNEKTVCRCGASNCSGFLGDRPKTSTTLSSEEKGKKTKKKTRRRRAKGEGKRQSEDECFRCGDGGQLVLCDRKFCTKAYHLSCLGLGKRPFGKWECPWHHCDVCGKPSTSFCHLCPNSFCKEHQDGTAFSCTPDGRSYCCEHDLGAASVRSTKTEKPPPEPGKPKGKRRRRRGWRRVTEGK

T3 sequence (Q9NZJ5 whole entry): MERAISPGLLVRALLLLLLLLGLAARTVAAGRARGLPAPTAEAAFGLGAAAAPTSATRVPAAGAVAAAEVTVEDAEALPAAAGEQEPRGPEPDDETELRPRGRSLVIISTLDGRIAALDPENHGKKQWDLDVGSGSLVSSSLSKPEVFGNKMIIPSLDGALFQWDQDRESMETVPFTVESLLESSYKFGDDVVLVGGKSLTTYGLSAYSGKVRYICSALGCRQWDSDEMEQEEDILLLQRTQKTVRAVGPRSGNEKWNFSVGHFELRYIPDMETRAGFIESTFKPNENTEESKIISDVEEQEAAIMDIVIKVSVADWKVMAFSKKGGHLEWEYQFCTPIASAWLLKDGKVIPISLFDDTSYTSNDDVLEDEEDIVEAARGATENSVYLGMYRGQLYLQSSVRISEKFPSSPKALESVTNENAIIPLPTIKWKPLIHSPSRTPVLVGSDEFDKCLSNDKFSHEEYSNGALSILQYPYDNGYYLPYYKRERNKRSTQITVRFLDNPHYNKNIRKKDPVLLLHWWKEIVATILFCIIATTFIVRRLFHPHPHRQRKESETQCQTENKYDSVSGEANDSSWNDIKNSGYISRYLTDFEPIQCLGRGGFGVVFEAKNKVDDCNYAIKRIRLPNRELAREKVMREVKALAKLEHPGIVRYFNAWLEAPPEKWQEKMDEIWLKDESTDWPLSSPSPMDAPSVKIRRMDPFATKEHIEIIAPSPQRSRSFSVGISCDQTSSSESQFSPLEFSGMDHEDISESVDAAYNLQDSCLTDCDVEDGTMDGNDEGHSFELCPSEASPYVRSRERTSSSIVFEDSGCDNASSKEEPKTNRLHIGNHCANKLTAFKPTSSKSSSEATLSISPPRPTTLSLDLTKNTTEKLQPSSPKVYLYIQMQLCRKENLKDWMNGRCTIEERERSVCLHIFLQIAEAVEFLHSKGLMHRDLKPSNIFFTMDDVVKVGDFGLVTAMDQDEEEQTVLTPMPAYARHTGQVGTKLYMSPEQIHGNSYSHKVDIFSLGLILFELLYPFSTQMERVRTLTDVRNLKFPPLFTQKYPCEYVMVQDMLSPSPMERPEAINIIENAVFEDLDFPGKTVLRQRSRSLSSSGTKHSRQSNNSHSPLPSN
Cytochrome P450 2D6, sequence (P10635 whole entry): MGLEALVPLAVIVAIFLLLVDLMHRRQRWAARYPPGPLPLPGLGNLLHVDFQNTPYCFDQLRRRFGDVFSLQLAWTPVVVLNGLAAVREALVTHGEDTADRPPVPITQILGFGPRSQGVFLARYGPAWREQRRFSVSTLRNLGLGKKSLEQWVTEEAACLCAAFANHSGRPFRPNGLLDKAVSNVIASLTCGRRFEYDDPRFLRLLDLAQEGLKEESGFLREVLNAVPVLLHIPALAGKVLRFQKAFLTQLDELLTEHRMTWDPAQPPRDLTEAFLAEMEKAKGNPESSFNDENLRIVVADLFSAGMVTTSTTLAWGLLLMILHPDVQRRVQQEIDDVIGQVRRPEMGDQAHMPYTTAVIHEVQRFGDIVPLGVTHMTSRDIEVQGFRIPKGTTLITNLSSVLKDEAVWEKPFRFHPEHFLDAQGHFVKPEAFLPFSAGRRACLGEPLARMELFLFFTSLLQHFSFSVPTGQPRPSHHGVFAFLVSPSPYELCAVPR
Transitional endoplasmic reticulum ATPase (Homo sapiens, UniProt P55072, C522A), sequence (P55072 2-806 C522A limits assumed): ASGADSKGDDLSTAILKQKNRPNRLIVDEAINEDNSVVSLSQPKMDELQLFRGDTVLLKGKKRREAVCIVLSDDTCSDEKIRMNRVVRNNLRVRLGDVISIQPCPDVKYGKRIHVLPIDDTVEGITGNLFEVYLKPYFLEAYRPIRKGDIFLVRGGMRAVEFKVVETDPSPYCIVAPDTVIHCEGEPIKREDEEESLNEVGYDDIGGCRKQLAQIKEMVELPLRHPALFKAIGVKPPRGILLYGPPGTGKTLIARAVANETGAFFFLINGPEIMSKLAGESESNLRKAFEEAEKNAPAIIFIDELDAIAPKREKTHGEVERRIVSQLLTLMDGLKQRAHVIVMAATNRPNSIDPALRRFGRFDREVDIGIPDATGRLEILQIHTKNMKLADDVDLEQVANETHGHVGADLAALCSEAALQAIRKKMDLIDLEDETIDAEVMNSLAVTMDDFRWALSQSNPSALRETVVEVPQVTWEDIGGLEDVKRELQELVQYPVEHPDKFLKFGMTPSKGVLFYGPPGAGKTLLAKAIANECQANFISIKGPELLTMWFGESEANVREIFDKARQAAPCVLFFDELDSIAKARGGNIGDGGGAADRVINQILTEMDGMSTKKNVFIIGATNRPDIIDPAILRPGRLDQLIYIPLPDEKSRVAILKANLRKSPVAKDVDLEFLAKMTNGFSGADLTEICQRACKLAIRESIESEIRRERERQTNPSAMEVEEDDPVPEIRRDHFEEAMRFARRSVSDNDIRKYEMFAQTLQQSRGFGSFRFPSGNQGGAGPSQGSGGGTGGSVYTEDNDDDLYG
Melanin-concentrating hormone receptor 1, sequence (Q99705 whole entry): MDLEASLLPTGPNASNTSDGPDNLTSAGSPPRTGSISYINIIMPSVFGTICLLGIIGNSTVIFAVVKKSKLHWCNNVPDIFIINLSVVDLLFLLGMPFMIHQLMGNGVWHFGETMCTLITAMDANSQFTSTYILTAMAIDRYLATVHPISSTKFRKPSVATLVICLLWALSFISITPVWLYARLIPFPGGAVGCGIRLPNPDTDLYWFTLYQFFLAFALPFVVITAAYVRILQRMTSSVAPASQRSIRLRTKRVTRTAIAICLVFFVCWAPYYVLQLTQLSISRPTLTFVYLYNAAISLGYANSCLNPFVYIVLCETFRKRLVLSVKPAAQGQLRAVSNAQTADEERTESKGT
Transitional endoplasmic reticulum ATPase (Homo sapiens, UniProt P55072), sequence (P55072 whole entry): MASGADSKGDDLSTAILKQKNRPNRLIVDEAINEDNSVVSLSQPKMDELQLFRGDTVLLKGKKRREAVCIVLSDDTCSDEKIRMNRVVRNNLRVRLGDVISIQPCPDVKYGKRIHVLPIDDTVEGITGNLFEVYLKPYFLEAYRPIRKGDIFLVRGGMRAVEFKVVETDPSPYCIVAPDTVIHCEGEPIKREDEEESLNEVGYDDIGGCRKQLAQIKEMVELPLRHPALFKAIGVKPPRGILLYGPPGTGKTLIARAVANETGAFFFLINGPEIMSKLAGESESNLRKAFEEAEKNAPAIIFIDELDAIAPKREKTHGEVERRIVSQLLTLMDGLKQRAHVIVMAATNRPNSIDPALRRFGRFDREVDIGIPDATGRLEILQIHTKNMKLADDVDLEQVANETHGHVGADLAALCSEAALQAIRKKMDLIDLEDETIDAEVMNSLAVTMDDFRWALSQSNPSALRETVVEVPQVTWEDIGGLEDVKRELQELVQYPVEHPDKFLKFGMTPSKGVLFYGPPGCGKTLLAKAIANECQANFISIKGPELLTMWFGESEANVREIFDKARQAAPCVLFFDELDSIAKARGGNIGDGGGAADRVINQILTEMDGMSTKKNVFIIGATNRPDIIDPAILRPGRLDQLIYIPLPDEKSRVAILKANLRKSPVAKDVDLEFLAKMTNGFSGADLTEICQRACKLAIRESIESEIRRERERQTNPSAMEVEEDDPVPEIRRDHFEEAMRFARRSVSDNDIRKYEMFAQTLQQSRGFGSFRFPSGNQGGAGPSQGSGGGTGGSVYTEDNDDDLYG
Genome polyprotein, sequence (P29990 2492-3391 limits assumed): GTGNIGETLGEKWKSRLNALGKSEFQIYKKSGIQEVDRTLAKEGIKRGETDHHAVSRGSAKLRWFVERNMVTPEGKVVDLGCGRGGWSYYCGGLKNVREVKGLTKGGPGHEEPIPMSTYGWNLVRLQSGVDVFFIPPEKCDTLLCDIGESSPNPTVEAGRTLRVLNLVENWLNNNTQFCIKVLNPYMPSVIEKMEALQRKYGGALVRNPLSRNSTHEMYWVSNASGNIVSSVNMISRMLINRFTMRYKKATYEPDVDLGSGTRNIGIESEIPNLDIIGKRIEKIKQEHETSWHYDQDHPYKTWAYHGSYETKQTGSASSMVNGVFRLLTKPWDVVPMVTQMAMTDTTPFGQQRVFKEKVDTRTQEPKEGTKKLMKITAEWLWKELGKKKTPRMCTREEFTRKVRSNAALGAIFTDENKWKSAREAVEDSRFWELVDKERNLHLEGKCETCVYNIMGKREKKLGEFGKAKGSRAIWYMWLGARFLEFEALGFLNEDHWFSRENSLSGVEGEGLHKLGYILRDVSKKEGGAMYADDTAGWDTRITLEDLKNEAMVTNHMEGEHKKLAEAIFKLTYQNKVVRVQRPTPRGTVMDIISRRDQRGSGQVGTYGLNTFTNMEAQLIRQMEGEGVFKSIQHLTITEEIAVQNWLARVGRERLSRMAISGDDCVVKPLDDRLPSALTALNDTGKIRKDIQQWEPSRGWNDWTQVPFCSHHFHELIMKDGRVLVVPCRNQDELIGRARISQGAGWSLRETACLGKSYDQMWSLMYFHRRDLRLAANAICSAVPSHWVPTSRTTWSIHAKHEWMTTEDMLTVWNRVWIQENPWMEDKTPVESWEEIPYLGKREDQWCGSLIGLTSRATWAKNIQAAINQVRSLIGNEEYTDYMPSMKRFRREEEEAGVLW
Lysosomal acid glucosylceramidase, sequence (P04062 whole entry): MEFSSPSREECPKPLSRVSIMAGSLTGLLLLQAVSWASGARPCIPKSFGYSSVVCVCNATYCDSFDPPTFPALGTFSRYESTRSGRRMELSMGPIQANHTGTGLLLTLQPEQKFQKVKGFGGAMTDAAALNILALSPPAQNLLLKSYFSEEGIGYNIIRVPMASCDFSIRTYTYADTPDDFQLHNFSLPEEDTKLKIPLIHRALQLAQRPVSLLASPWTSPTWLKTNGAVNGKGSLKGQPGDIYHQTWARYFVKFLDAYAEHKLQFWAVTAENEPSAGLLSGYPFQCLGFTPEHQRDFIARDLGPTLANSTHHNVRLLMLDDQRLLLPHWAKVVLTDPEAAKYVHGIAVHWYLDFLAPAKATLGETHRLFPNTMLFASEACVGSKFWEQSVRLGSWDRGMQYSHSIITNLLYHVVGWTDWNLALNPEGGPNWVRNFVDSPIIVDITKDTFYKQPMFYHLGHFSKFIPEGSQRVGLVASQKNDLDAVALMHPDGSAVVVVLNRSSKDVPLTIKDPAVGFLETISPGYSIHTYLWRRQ

O=C(CSc1nnc(SCc2ccccc2)s1)N/N=C/c1ccc(Cl)cc1Cl
CC50 [1]: 38.4 µM (active)

CCOC(=O)N1CCC2(CC1)C(C#N)=C(N)Oc1c2c(C)nn1-c1cccc(Cl)c1
EC50 [2]: > 10 µM (not active)

CN(C)C1C(=O)C(C(N)=O)C(=O)C2(O)C(=O)C3C(=O)c4c(O)cccc4C(C)(O)C3CC12 (stereo unspecified)
EC50 (Streptococcus): 0.402 µM (active)

C=CCN1C=CC(=CC=C(C#N)C#N)C=C1
IC50 (Leucine aminopeptidase): 72.2 µM (active) | IC50 [3]: > 55.7 µM (not active) | IC50 (Insulin-degrading enzyme): 10.4 µM (not active) | EC50 [4]: > 100 µM (active)

CCOC(=O)OCC1OC(C#Cc2ccccc2)C=CC1Oc1cccc(N(C)C)c1 (stereo unspecified)
AC50 (Cytochrome P450 2D6): 3.98 µM (inconclusive)

Cc1cscc1NC(=O)/C=C/C(=O)O
EC50 [5]: > 55.7 µM (not active) | EC50 [6]: > 55.7 µM (not active)

CC(C)C(=O)N1CCN(c2ccccc2NC(=O)c2ccc([N+](=O)[O-])o2)CC1
IC50 [7]: > 43.8 µM (not active) | IC50 [8]: 64.4 µM (not active) | EC50 [9]: 0.431 µM (active) | EC50 [10]: > 60 µM (not active)

CCn1nc([N+](=O)[O-])c(C(C#N)c2nc3cc(C(F)(F)F)ccc3s2)c(Cl)c1=O (stereo unspecified)
EC50 (HEK293 [11]): 6.94 µM (active) | IC50 (HEK293 [12]): 2.78 µM (active) | IC50 [13]: > 50 µM (not active) | IC50 (HEK293 [14]): 11 µM (active) | IC50 [15]: 11.9 µM (active) | IC50 (HEK293 [16]): 3.47 µM (inactive) | IC50 [17]: > 50 µM (not active) | IC50 [18]: 3.87 µM (active) | IC50 (Nonstructural protein 1): 19.9 µM (active) | CC50 (Vero): > 40 µM (active) | IC50 (Genome polyprotein): 57.5 µM (active) | AC50 [19]: 19 µM (active)
